In experiment [1] the target is High affinity nerve growth factor receptor (Homo sapiens, UniProt P04629). Description: Selectivity interaction (KinaseProfiler screening (Millipore)) EUB0000601a NTRK1. Particulars: at 3 µM.
Experiment [2] addresses T1, TGF-beta receptor type-1 (Homo sapiens) (UniProt P36897).
T1 sequence (whole entry): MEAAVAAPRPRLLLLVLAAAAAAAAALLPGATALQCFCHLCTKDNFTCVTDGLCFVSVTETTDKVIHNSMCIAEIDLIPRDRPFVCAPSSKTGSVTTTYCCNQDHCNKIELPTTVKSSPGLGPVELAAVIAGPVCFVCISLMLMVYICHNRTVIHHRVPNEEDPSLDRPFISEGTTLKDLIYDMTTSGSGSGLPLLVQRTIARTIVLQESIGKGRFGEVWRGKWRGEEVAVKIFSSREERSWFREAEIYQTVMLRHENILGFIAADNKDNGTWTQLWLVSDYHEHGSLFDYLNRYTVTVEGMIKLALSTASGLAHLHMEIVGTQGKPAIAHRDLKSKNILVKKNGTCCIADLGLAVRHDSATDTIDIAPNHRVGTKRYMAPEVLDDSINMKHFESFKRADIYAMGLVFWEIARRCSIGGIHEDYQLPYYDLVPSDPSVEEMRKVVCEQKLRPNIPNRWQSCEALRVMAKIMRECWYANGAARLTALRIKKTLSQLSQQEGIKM
Description: Selectivity interaction (KinomeScan (DiscoverX)) EUB0001079a TGFBR1. Conditions: at 1 µM.

Experiment [3] addresses T2, Serine/threonine-protein kinase TNNI3K (Homo sapiens) (UniProt Q59H18).
T2 sequence (whole entry): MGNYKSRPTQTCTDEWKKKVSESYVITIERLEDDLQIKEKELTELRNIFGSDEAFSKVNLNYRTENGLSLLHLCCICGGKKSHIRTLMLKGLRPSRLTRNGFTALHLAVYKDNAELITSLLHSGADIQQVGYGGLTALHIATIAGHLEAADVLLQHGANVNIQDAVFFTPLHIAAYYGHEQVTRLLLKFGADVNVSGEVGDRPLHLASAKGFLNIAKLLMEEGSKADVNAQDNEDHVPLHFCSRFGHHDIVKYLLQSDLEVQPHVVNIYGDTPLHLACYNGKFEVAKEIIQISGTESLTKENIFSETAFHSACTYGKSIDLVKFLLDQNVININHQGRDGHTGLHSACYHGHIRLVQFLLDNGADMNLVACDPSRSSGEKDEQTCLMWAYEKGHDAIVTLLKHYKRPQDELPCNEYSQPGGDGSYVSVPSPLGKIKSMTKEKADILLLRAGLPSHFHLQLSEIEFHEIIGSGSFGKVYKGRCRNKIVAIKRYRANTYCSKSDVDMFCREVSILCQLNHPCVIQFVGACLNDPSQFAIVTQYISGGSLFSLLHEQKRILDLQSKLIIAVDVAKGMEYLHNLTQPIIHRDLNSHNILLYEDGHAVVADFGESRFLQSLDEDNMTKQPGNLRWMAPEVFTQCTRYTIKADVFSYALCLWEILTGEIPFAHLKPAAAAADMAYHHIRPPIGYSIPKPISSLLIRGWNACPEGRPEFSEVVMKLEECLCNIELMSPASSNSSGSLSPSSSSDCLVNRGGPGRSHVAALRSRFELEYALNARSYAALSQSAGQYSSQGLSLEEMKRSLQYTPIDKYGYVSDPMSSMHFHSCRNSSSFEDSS
Description: Selectivity interaction (KinomeScan (DiscoverX)) EUB0000655a TNNI3K. Particulars: at 10 µM.

Experiment [4] addresses T3, Non-receptor tyrosine-protein kinase TNK1 (Homo sapiens) (UniProt Q13470).
T3 sequence (whole entry): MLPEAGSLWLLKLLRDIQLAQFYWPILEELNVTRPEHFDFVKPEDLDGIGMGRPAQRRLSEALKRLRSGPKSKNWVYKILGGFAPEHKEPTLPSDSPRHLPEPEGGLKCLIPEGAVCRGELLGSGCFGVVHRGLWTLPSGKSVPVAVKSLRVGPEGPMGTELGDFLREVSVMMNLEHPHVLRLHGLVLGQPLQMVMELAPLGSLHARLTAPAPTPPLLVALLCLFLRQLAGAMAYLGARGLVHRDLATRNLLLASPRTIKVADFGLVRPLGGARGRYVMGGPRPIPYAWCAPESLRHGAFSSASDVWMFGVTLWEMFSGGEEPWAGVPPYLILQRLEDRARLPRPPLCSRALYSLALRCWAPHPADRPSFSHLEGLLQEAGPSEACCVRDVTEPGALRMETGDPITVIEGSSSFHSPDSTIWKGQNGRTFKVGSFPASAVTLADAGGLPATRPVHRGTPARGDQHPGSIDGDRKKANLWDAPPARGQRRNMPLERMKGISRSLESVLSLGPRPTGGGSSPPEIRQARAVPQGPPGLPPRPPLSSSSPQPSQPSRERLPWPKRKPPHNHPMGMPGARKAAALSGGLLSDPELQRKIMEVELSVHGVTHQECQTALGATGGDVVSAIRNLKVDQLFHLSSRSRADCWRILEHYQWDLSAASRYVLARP
Description: Selectivity interaction (Kinase panel (Carna Biosciences)) EUB0001542aTs TNK1. Particulars: at 1 µM.

For experiment [5], the target named is Serine/threonine-protein kinase B-raf (Homo sapiens) (UniProt P15056). As to the kind of experiment: Selectivity interaction (Kinase panel (Invitrogen)) EUB0000639a BRAF. Conditions: at 200 nM.
Chain of Serine/threonine-protein kinase B-raf (Homo sapiens) (P15056 whole entry): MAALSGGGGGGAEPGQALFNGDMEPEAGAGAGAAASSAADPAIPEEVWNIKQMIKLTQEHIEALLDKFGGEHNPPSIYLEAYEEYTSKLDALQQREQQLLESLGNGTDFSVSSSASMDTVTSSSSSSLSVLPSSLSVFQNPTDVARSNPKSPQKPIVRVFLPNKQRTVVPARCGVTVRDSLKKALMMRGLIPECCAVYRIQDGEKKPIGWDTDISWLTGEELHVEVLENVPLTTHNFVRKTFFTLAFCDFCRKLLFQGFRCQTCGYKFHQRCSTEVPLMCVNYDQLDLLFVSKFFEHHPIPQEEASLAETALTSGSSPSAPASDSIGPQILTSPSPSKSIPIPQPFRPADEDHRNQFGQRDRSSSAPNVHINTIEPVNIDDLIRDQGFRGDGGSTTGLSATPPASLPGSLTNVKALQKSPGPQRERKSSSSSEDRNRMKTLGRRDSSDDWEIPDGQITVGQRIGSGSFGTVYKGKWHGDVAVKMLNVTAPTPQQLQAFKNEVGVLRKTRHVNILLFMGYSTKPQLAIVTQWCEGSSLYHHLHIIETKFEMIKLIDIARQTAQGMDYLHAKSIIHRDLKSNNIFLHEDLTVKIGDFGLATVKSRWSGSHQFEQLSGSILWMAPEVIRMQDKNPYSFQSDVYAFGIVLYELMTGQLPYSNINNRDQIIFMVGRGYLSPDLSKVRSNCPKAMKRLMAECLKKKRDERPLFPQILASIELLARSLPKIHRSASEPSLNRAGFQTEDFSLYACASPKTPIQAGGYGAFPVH

Chain of High affinity nerve growth factor receptor (P04629 33-796 limits assumed): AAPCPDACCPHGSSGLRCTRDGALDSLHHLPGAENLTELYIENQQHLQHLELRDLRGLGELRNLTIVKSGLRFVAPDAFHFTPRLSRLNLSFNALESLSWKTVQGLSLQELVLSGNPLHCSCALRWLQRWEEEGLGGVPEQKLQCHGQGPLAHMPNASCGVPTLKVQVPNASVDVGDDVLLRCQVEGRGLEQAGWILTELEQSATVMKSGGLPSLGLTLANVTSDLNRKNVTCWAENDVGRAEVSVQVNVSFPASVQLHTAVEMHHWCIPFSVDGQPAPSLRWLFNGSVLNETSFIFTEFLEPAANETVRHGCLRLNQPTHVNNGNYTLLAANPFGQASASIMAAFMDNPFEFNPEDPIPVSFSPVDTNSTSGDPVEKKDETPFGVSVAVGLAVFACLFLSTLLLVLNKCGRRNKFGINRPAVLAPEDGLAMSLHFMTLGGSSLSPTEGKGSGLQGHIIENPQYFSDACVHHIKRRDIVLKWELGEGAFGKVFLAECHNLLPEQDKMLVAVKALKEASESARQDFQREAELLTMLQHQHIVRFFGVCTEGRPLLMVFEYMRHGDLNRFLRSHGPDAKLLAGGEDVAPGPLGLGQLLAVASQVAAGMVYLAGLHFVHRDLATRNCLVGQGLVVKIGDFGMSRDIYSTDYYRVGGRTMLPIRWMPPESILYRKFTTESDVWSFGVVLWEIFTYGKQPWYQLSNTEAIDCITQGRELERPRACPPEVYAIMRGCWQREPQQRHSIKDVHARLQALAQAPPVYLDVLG

Turning to `CCc1cc(Nc2nccc(-c3c(-c4ccc(OC)c(C(=O)Nc5c(F)cccc5F)c4)nc4ccccn34)n2)c(OC)cc1N1CCC(N2CCN(S(C)(=O)=O)CC2)CC1`, the % of inhibition in experiment [1] came out at 59%. In turn, `Nc1cnc(N2CCc3cc(S(=O)(=O)Nc4c(F)cc(Cl)cc4F)cc(N4CCCC4=O)c32)nc1` [TP-020n] yielded a % of control in experiment [2] of 100%.

`CN(C)CCOc1ccc(-c2nc(-c3ccncc3)c(-c3ccc4c(c3)CC/C4=N\O)[nH]2)cc1` came in with a % of control in experiment [3] of 76%.

The compound `Cn1cc(Nc2nccc(N3CC4CCC(C3)N4C(=O)[C@@H]3CC3(F)F)n2)cn1` registered a % of inhibition in experiment [4] of 94%. The compound `CC[C@@H]1[C@H](F)C(=O)N[C@@H]1COc1nccc2cc(C(N)=O)c(OC)cc12` [ZIMLOVISERTIB] registered a % of inhibition in experiment [5] of 2.21%.

The values above are taken from ChEMBL document CHEMBL5465560, “Selectivity Literature for EUbOPEN Chemogenomic Library” (2024).
